Test system: fatty liver of the SD rats
Experiment: Pathological sections and grading of fatty liver of SD rats
Type: in vivo
Settings: compounds 80 mg/kg, Sim 10 mg/kg, OCA 10 mg/kg
Experimental: 500 g of lard oil was taken, placed in a container, and heated to melt. When the temperature rose to 100° C., it was added with 200 g of cholesterol to dissolve completely, and then further added with 20 g of propylthiouracil. The resulted mixture was stirred well, and added with 500 ml of Tween 80 after dissolution, resulting in an oil phase. At the same time, 600 mL of distilled water and 400 mL of 1,2-propanediol were taken and heated to 60° C. in a water bath, then were added with 40 g of sodium deoxycholate. The resulted mixture was stirred well until realizing complete dissolution, so as to give an aqueous phase. The aqueous phase was added into the oil phase and mixed well to give a lipid emulsion. The lipid emulsion was heated in a water bath of 37° C. before intragastric administration to animals.
An appropriate amount of pharmaceutical was weighed, added with 0.5% CMC-Na, and mixed homogeneously by grinding. There are groups for Compound 01 (80 mg/kg), Compound 02 (80 mg/kg), Compound 03 (80 mg/kg), Compound 04 (80 mg/kg), Compound 05 (80 mg/kg), Compound 06 (80 mg)/kg), Compound 07 (80 mg/kg), Compound 08 (80 mg/kg), Compound 09 (80 mg/kg), Compound 10 (80 mg/kg), Compound 11 (80 mg/kg), Compound 12 (80 mg/kg), Compound 13 (80 mg/kg), Compound 14 (80 mg/kg), Compound 15 (80 mg/kg), Compound 16 (80 mg/kg), Compound 17 (80 mg/kg), Compound 18 (80 mg/kg), Compound 19 (80 mg/kg), Compound 20 (80 mg/kg), Compound 21 (80 mg/kg), and Compound 22 (80 mg/kg).
Male SD rats weighing 180-200 g were fed adaptively for 7 days. Based on body weight, 10 animals were used as control and the remaining animals were intragastrically administered with the lipid emulsion every day, 1 ml/100 g body weight for 14 days. After fasting for 12 hours, 1 mL of blood was collected from the orbits of the animals, and was determined by Hitachi Automatic Biochemical Analyzer 7080 for serum cholesterol (CHO), triglyceride (TG), low density lipoprotein (LDL-C) and high density lipoprotein (HDL-C).
The modeled rats were continued with the intragastric administration of the lipid emulsion. At the same time, the pharmaceutical-administered groups were administrated with a corresponding dose of pharmaceuticals, while the Model group was administrated with an equal volume of solvent. The pharmaceutical-administered groups were administrated with the lipid emulsion in the morning, and with the pharmaceuticals in the afternoon. The animals were measured for the body weight once a week, and were observed. After 14 days of continuous administration, 1 mL of blood was collected from the orbits, and was determined for the contents of triglyceride, cholesterol, low density lipoprotein and high density lipoprotein in blood serum.

SMILES | Pathological grading: Steatotic hepatocytes (animal 1) | Pathological grading: Steatotic hepatocytes (animal 2) | Pathological grading: Steatotic hepatocytes (animal 3) | Pathological grading: Steatotic hepatocytes (animal 4) | Pathological grading: Steatotic hepatocytes (animal 5)
CC(=O)c1ccc(NC(=O)C(C)(C)Oc2ccc(Cl)cc2)cc1 [Compound 08] | ++ (45-65% of hepatocytes undergoing steatosis) | ++ (45-65% of hepatocytes undergoing steatosis) | + (25-45% of hepatocytes undergoing steatosis) | ++ (45-65% of hepatocytes undergoing steatosis) | + (25-45% of hepatocytes undergoing steatosis)
Cc1ccc(C)c(OCCCC(C)(C)C(=O)NCC(=O)c2ccc(NC(=O)c3cccnc3)cc2)c1 [Compound 11] | + (25-45% of hepatocytes undergoing steatosis) | ++ (45-65% of hepatocytes undergoing steatosis) | ++ (45-65% of hepatocytes undergoing steatosis) | ++ (45-65% of hepatocytes undergoing steatosis) | + (25-45% of hepatocytes undergoing steatosis)
CC(=O)c1ccc(NC(=O)c2cccnc2)cc1 [Compound 01] | ++ (45-65% of hepatocytes undergoing steatosis) | ++ (45-65% of hepatocytes undergoing steatosis) | ++ (45-65% of hepatocytes undergoing steatosis) | ++ (45-65% of hepatocytes undergoing steatosis) | ++ (45-65% of hepatocytes undergoing steatosis)
CC(=O)c1ccc(O)c(CCCOC(=O)c2cccnc2)c1 [Compound 16] | + (25-45% of hepatocytes undergoing steatosis) | ++ (45-65% of hepatocytes undergoing steatosis) | +++ (65-85% or more of hepatocytes undergoing steatosis) | ++ (45-65% of hepatocytes undergoing steatosis) | + (25-45% of hepatocytes undergoing steatosis)
Cc1ccc(C)c(OCCCC(C)(C)C(=O)NCC(=O)c2ccc(N)cc2)c1 [Compound 04] | ++ (45-65% of hepatocytes undergoing steatosis) | ++ (45-65% of hepatocytes undergoing steatosis) | ++ (45-65% of hepatocytes undergoing steatosis) | +++ (65-85% or more of hepatocytes undergoing steatosis) | ++ (45-65% of hepatocytes undergoing steatosis)
CC(=O)c1ccc(O)c(CCCOC(=O)C(C)(C)CCCOc2cc(C)ccc2C)c1 [Compound 15] | ++ (45-65% of hepatocytes undergoing steatosis) | +++ (65-85% or more of hepatocytes undergoing steatosis) | ++ (45-65% of hepatocytes undergoing steatosis) | ++ (45-65% of hepatocytes undergoing steatosis) | ++ (45-65% of hepatocytes undergoing steatosis)
CC(=O)c1ccc(NC(=O)c2cccnc2)c(O)c1 [Compound 20] | ++ (45-65% of hepatocytes undergoing steatosis) | +++ (65-85% or more of hepatocytes undergoing steatosis) | ++ (45-65% of hepatocytes undergoing steatosis) | ++ (45-65% of hepatocytes undergoing steatosis) | ++ (45-65% of hepatocytes undergoing steatosis)
CC(=O)c1ccc(NC(=O)C(C)(C)Oc2ccc(Cl)cc2)c(O)c1 [Compound 19] | ++ (45-65% of hepatocytes undergoing steatosis) | ++ (45-65% of hepatocytes undergoing steatosis) | ++ (45-65% of hepatocytes undergoing steatosis) | +++ (65-85% or more of hepatocytes undergoing steatosis) | + (25-45% of hepatocytes undergoing steatosis)
CC(=O)c1ccc(O)c(NC(=O)C(C)(C)CCCOc2cc(C)ccc2C)c1 [Compound 05] | + (25-45% of hepatocytes undergoing steatosis) | +++ (65-85% or more of hepatocytes undergoing steatosis) | ++ (45-65% of hepatocytes undergoing steatosis) | ++ (45-65% of hepatocytes undergoing steatosis) | + (25-45% of hepatocytes undergoing steatosis)
CC(=O)c1ccc(O)c(NC(=O)c2cccnc2)c1 [Compound 06] | + (25-45% of hepatocytes undergoing steatosis) | ++ (45-65% of hepatocytes undergoing steatosis) | ++ (45-65% of hepatocytes undergoing steatosis) | + (25-45% of hepatocytes undergoing steatosis) | ++ (45-65% of hepatocytes undergoing steatosis)
CC(=O)c1ccc(NC(=O)C(C)(C)Oc2ccc(C3CC3(Cl)Cl)cc2)cc1 (stereo not drawn) [Compound 10] | ++ (45-65% of hepatocytes undergoing steatosis) | ++ (45-65% of hepatocytes undergoing steatosis) | + (25-45% of hepatocytes undergoing steatosis) | ++ (45-65% of hepatocytes undergoing steatosis) | ++ (45-65% of hepatocytes undergoing steatosis)
CC(C)(Oc1ccc(Cl)cc1)C(=O)Nc1ccc(C(=O)CNC(=O)c2cccnc2)cc1 [Compound 17] | + (25-45% of hepatocytes undergoing steatosis) | ++ (45-65% of hepatocytes undergoing steatosis) | ++ (45-65% of hepatocytes undergoing steatosis) | ++ (45-65% of hepatocytes undergoing steatosis) | ++ (45-65% of hepatocytes undergoing steatosis)
Nc1ccc(C(=O)CNC(=O)c2cccnc2)cc1 [Compound 03] | ++ (45-65% of hepatocytes undergoing steatosis) | + (25-45% of hepatocytes undergoing steatosis) | +++ (65-85% or more of hepatocytes undergoing steatosis) | ++ (45-65% of hepatocytes undergoing steatosis) | ++ (45-65% of hepatocytes undergoing steatosis)
CC(=O)c1ccc(NC(=O)C(C)(C)CCCOc2cc(C)ccc2C)c(O)c1 [Compound 18] | + (25-45% of hepatocytes undergoing steatosis) | + (25-45% of hepatocytes undergoing steatosis) | ++ (45-65% of hepatocytes undergoing steatosis) | ++ (45-65% of hepatocytes undergoing steatosis) | ++ (45-65% of hepatocytes undergoing steatosis)
CC(=O)c1ccc(NC(=O)C(C)(C)Oc2ccc(C(=O)c3cccc(Cl)c3)cc2)cc1 [Compound 07] | ++ (45-65% of hepatocytes undergoing steatosis) | ++ (45-65% of hepatocytes undergoing steatosis) | ++ (45-65% of hepatocytes undergoing steatosis) | ++ (45-65% of hepatocytes undergoing steatosis) | + (25-45% of hepatocytes undergoing steatosis)

— patent US10647673B2, “Acetophenone compound, preparation method thereof, and application thereof in fatty liver prevention and treatment” (Nanjing Bioenergy Medicine Science & Technology Co., Ltd., priority 2017, dated 2020)
